Source: US10703764B2, “Benzopiperazine compositions as BET bromodomain inhibitors” (FORMA Therapeutics, Inc., priority 2013, dated 2020)

How the values were obtained:
[1] = target: T1, BRD4 BD1 (Homo sapiens, UniProt O60885); test: AlphaScreen binding assay, BRD4 Bromodomain 1
T1 construct: made in house
Outline: (§1)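 An AlphaScreen competition format was used with His-BRD4 BD1 or BD2 and biotin-H4 K5/8/12/16-acetyl peptide, each at matched final levels of 50 nM (BD1) or 100 nM (BD2). Incubation in HEPES/NaCl buffer with 0.1% BSA and 0.01% Triton X-100 ran ≥1 h before IC50 determination.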

[2] = target: T2, BRD4 BD2 (Homo sapiens, UniProt O60885); test: AlphaScreen binding assay, BRD4 Bromodomain 2
T2 construct: made in house
Outline: as §1

Structure (SMILES) | IC50 [1] [nM] | IC50 [2] [nM]
CC(=O)N1c2ccc(-c3ccc(S(C)(=O)=O)cc3)cc2N(C(=O)c2ccc(-c3ccccc3)o2)C[C@@H]1C [Example I-886] | > 10000 | 50 to 500
CC(=O)N1c2ccc(-c3ccc(S(C)(=O)=O)cc3)cc2N(C(=O)c2ccc(C(F)(F)F)o2)C[C@@H]1C [Example I-887] | > 10000 | 50 to 500
CC(=O)N1c2ccc(-c3ccc(S(C)(=O)=O)cc3)cc2N(C(=O)c2ccc(S(C)(=O)=O)o2)C[C@@H]1C [Example I-888] | > 10000 | > 500
CC(=O)Nc1cccc(C(=O)N2C[C@H](C)N(C(C)=O)c3ccc(-c4ccc(S(C)(=O)=O)cc4)cc32)c1 [Example I-889] | > 10000 | > 500
CC(=O)N1c2ccccc2N(Cc2ccc(N(C)C)cc2)C[C@@H]1C [Example I-891] | > 10000 | > 500
CC(=O)N1c2ccccc2N(Cc2ccc(C(C)C)cc2)C[C@@H]1C [Example I-892] | > 10000 | > 500
CC(=O)N1c2ccccc2N(Cc2cccc(C)c2)C[C@@H]1C [Example I-893] | > 10000 | > 500
CC(=O)N1c2ccccc2N(Cc2ccc(Cl)cc2Cl)C[C@@H]1C [Example I-894] | > 10000 | > 500
CC(=O)N1c2ccccc2N(Cc2ccc(C)cc2)C[C@@H]1C [Example I-895] | > 10000 | > 500
CC(=O)N1c2ccccc2N(Cc2ccccc2C)C[C@@H]1C [Example I-896] | > 10000 | > 500
CC(=O)N1c2ccccc2N(Cc2ccc(F)cc2F)C[C@@H]1C [Example I-897] | > 10000 | > 500
CC(=O)N1c2ccccc2N(Cc2ccc(Cl)c(F)c2)C[C@@H]1C [Example I-898] | > 10000 | > 500
CC(=O)N1c2ccccc2N(Cc2cccc(C(F)(F)F)c2)C[C@@H]1C [Example I-899] | > 10000 | > 500
CC(=O)N1c2ccccc2N(Cc2cc(C(F)(F)F)cc(C(F)(F)F)c2)C[C@@H]1C [Example I-900] | > 10000 | > 500
CCc1ccc(CN2C[C@H](C)N(C(C)=O)c3ccccc32)cc1 [Example I-901] | > 10000 | > 500
COc1cc(CN2C[C@H](C)N(C(C)=O)c3ccccc32)cc(OC)c1 [Example I-902] | > 10000 | > 500
CC(=O)N1c2ccccc2N(Cc2cc(C)ccc2C)C[C@@H]1C [Example I-903] | > 10000 | > 500
CC(=O)N1c2ccccc2N(Cc2ccc(O)c(C)c2)C[C@@H]1C [Example I-904] | > 10000 | > 500
CC(=O)N1c2ccccc2N(Cc2cc(C)nn2C)C[C@@H]1C [Example I-905] | > 10000 | > 500
CC(=O)N1c2ccccc2N(Cc2ccccc2OCCN(C)C)C[C@@H]1C [Example I-906] | > 10000 | 50 to 500
CC(=O)N1c2ccccc2N(Cc2ccc(OCCN(C)C)cc2)C[C@@H]1C [Example I-907] | > 10000 | > 500
CC(=O)N1c2ccccc2N(Cc2cccc(OCCN(C)C)c2)C[C@@H]1C [Example I-908] | > 10000 | 50 to 500

Structure (SMILES) | IC50 [1] [nM] | IC50 [2] [nM]
CC(=O)N1c2ccccc2N(Cc2ccccc2)C[C@@H]1C [Example I-909] | > 10000 | 50 to 500
CC(=O)N1c2ccccc2N(CC2CCCCC2)C[C@@H]1C [Example I-910] | > 10000 | > 500
CC(=O)N1c2ccccc2N(Cc2ccc(C(F)(F)F)nc2)C[C@@H]1C [Example I-911] | > 10000 | > 500
CC(=O)N1c2ccccc2N(Cc2ccncc2)C[C@@H]1C [Example I-912] | > 10000 | > 500
CC(=O)N1c2ccccc2N(Cc2ccccn2)C[C@@H]1C [Example I-913] | > 10000 | > 500
COc1cncc(CN2C[C@H](C)N(C(C)=O)c3ccccc32)c1 [Example I-914] | > 10000 | > 500
CC(=O)N1c2ccccc2N(Cc2nccs2)C[C@@H]1C [Example I-915] | > 10000 | > 500
CC(=O)N1c2ccccc2N(Cc2ccc(-c3ccccc3)cc2)C[C@@H]1C [Example I-916] | > 10000 | > 500
CC(=O)N1c2ccccc2N(Cc2ccc(OC(C)C)cc2)C[C@@H]1C [Example I-917] | > 10000 | > 500
CC(=O)N1c2ccccc2N(Cc2cccc(Oc3ccccc3)c2)C[C@@H]1C [Example I-918] | > 10000 | > 500
CC(=O)N1c2ccccc2N(Cc2ccc(Oc3ccccc3)cc2)C[C@@H]1C [Example I-919] | > 10000 | > 500
CC(=O)N1c2ccccc2N(Cc2ccc3c(c2)OCO3)C[C@@H]1C [Example I-920] | > 10000 | > 500
CC(=O)N1c2ccccc2N(Cc2cccc3c2OCO3)C[C@@H]1C [Example I-921] | > 10000 | 50 to 500
CC(=O)N1c2ccccc2N(Cc2ccc(N3CCOCC3)nc2)C[C@@H]1C [Example I-922] | > 10000 | > 500
CC(=O)N1c2ccccc2N(Cc2ccc(O)cc2)C[C@@H]1C [Example I-923] | > 10000 | > 500
CC(=O)N1c2ccccc2N(Cc2cccnc2)C[C@@H]1C [Example I-924] | > 10000 | > 500
CC(=O)N1c2ccccc2N(CC2CCOCC2)C[C@@H]1C [Example I-925] | > 10000 | > 500
CC(=O)N1c2ccccc2N(Cc2cncn2C)C[C@@H]1C [Example I-926] | > 10000 | > 500
CCC[C@@H](C)CN1C[C@H](C)N(C(C)=O)c2ccccc21 [Example I-927] | > 10000 | > 500
CC(=O)N1CCC[C@H](CN2C[C@H](C)N(C(C)=O)c3ccccc32)C1 [Example I-928] | > 10000 | > 500
CC(=O)N1c2ccccc2N(CC2CCN(C(C)C)CC2)C[C@@H]1C [Example I-929] | > 10000 | > 500
COc1ccc(OC)c(S(=O)(=O)N2C[C@H](C)N(C(C)=O)c3ccccc32)c1 [Example I-930] | > 10000 | > 500

The remaining lines, values ahead:

IC50 [1] [nM] | IC50 [2] [nM] | Structure (SMILES)
> 10000 | > 500 | CC(=O)N1c2ccc(-c3cc(C(F)(F)F)nn3C)cc2N(C(=O)c2ccco2)C[C@@H]1C [Example I-851]
100 to 1000 | < 50 | CC(=O)N1c2ccc(-c3cccc(-n4cccn4)c3)cc2N(C(=O)c2ccco2)C[C@@H]1C [Example I-853]
1000 to 10000 | 50 to 500 | CC(=O)N1c2ccc(-c3cccc(-c4nnc(C)o4)c3)cc2N(C(=O)c2ccco2)C[C@@H]1C [Example I-854]
1000 to 10000 | < 50 | CC(=O)N1c2ccc(-c3cccc(-c4ccco4)c3)cc2N(C(=O)c2ccco2)C[C@@H]1C [Example I-855]
1000 to 10000 | < 50 | CC(=O)N1c2ccc(-c3cccc(C(N)=O)c3)cc2N(C(=O)c2ccco2)C[C@@H]1C [Example I-856]
1000 to 10000 | 50 to 500 | CC(=O)N1c2ccc(-c3cccc4c3cnn4C)cc2N(C(=O)c2ccco2)C[C@@H]1C [Example I-858]
1000 to 10000 | 50 to 500 | CC(=O)N1c2ccc(-c3ccnc(C(F)(F)F)c3)cc2N(C(=O)c2ccco2)C[C@@H]1C [Example I-861]
1000 to 10000 | 50 to 500 | CC(=O)N1c2ccc(-c3ccc(S(=O)(=O)C(F)(F)F)cc3)cc2N(C(=O)c2ccco2)C[C@@H]1C [Example I-866]
1000 to 10000 | 50 to 500 | CC(=O)N1c2ccc(-c3cc(F)cc(F)c3)cc2N(C(=O)c2ccco2)C[C@@H]1C [Example I-869]
100 to 1000 | 50 to 500 | CC(=O)N1c2ccc(-c3cccc(N(C)C)c3)cc2N(C(=O)c2ccco2)C[C@@H]1C [Example I-870]
1000 to 10000 | > 500 | CC(=O)N1c2ccc(-c3cccc4ccsc34)cc2N(C(=O)c2ccco2)C[C@@H]1C [Example I-873]
1000 to 10000 | 50 to 500 | COc1ccc(C(=O)N2C[C@H](C)N(C(C)=O)c3ccc(-c4ccc(S(C)(=O)=O)cc4)cc32)cc1 [Example I-877]
> 10000 | 50 to 500 | CC(=O)N1c2ccc(-c3ccc(S(C)(=O)=O)cc3)cc2N(C(=O)c2ccc(F)cc2)C[C@@H]1C [Example I-878]
> 10000 | > 500 | CC(=O)N1c2ccc(-c3ccc(S(C)(=O)=O)cc3)cc2N(C(=O)c2ccc(OC(F)(F)F)cc2)C[C@@H]1C [Example I-879]
> 10000 | > 500 | CC(=O)N1c2ccc(-c3ccc(S(C)(=O)=O)cc3)cc2N(C(=O)c2ccc(Oc3cc(Cl)cc(Cl)c3)o2)C[C@@H]1C [Example I-880]
> 10000 | > 500 | CC(=O)N1c2ccc(-c3ccc(S(C)(=O)=O)cc3)cc2N(C(=O)c2cn(C)cn2)C[C@@H]1C [Example I-881]
1000 to 10000 | 50 to 500 | COc1ccc2[nH]c(C(=O)N3CC(C)N(C(C)=O)c4ccc(-c5ccc(S(C)(=O)=O)cc5)cc43)cc2c1 (stereo not shown) [Example I-882]
> 10000 | > 500 | COc1cccc2[nH]c(C(=O)N3CC(C)N(C(C)=O)c4ccc(-c5ccc(S(C)(=O)=O)cc5)cc43)cc12 (stereo not shown) [Example I-883]
> 10000 | > 500 | CC(=O)N1c2ccc(-c3ccc(S(C)(=O)=O)cc3)cc2N(C(=O)c2ncoc2C)C[C@@H]1C [Example I-884]
> 10000 | > 500 | CC(=O)N1c2ccc(-c3ccc(S(C)(=O)=O)cc3)cc2N(C(=O)c2csc(-c3ccccc3)n2)C[C@@H]1C [Example I-885]
1000 to 10000 | 50 to 500 | CC(=O)N1c2ccc(-c3ccc(S(C)(=O)=O)cc3)cc2N(C(=O)c2ccc(CN)o2)C[C@@H]1C [Example I-890]
